# Results from patent US6664058B2, “Base analogues” (Amersham Biosciences UK Limited, priority 2000, dated 2003).
# System: exonuclease free Klenow fragment DNA polymerase I (EFK)
# Details: 40 μM test compound alone or with 4 μM dNTPαS; 33P 15 mer primer / 24 mer template; one unit EFK; 37° C., 3 minutes
# Method: Primer Extension Assays to Study the Incorporation of Triphosphate 5 by DNA Polymerases
# A primer extension assay was used to evaluate the triphosphate 5 as a substrate for exonuclease free Klenow fragment DNA polymerase I (EFK). The assay used a ^33P 5′ end labelled 15 mer primer hybridised to a 24 mer template. The sequences of the primer and template are:
# One picomole ^33P labelled primer was hybridised to 2 picomoles of template in ×2 Klenow buffer (100 mM Tris-HCl pH 7.5, 10 mM MgCl2., 10 mM 2-mercaptoethanol) To this was added either 4 μM dNTPαS or 40 μM (test compound 5c) or a mixture of 4 μM dNTPαS and 40 μM (test compound). One unit EFK and 20 mU inorganic pyrophosphatase were used per reaction. Primer alone, primer plus template plus enzyme controls were also carried out. The reactions were incubated at 37° C. for 3 minutes. Reactions were then stopped by the addition of formamide/EDTA stop solution. Reaction products were separated on a 20% polyacrylamide 7M urea gel and the product fragments sized by comparison with the labelled primer and the products of extensions in the presence of 4 μM dNTPαS after exposure to Kodak Biomax autoradiography film.
smiles,measurement,value
"Cc1cc2c(nn1)NC(=O)N([C@H]1C[C@H](O)[C@@H](COP(=O)(O)OP(=O)(O)OP(=O)(O)O)O1)C2 [compound 5, 6-(β-D-2-Deoxyribofuranosyl)-5-hydro-3-methyl-8H-pyrimido[4,5-c][1,2]pyridazin-7-one-5′-triphosphate]",natural nucleotide in place of which the test compound is incorporated,incorporated in place of dTTP
